Experimental data: patent US8324248B2, “Piperidine derivatives as NK3 receptor antagonists” (Hoffmann-La Roche Inc., priority 2009, dated 2012)

Target: T1, recombinant human NK3 receptor (Homo sapiens, UniProt P29371)
T1 construct: expressed in transfected cells; host or cells: HEK293 cells (transient expression), membranes
T1 sequence (P29371 1-465): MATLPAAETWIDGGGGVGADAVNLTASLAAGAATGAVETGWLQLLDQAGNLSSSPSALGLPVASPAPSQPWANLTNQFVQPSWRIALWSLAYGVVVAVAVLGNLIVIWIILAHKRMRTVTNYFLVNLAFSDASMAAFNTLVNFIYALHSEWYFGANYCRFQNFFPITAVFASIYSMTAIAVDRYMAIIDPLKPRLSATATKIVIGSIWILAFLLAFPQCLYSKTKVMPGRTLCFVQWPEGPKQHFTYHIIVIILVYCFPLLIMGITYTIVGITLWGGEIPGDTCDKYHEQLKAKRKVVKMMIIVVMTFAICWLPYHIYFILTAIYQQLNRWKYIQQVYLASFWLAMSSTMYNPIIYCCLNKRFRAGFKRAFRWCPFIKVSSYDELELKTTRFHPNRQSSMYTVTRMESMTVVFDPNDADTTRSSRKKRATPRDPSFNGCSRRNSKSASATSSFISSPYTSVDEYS
Test: [3H]SR142801 competition binding assay, hNK3 receptor binding
Settings: [3H]SR142801 displacement; membranes from HEK293 cells transiently expressing recombinant human NK3 receptor; Ki by Cheng-Prussoff from IC50
Description: The compounds were investigated in accordance with the tests given hereinafter. [^3H]SR142801 competition binding assay hNK3 receptor binding experiment were performed using [^3H]SR142801 (Catalog No. TRK1035, specific activity: 74.0 Ci/mmol, Amersham, GE Healthcare UK limited, Buckinghamshire, UK) and membrane isolated from HEK293 cells transiently expressing recombinant human NK3 receptor. After thawing, the membrane homogenates were centrifuged at 48,000×g for 10 min at 4° C., the pellets were resuspended in the 50 mM Tris-HCl, 4 mM MnCl2, 1 μM phosphoramidon, 0.1% BSA binding buffer at pH 7.4 to a final assay concentration of 5 μg protein/well. For inhibition experiments, membranes were incubated with [^3H]SR142801 at a concentration equal to KD value of radioligand and 10 concentrations of the inhibitory compound (0.0003-10 μM) (in a total reaction volume of 500 μl) for 75 min at room temperature (RT). At the end of the incubation, membranes were filtered onto unitfilter (96-well white microplate with bonded GF/C filter preincubated 1 h in 0.3% PEI+0.3% BSA, Packard BioScience, Meriden, Conn.) with a Filtermate 196 harvester (Packard BioScience) and washed 4 times with ice-cold 50 mM Tris-HCl, pH 7.4 buffer. Nonspecific binding was measured in the presence of 10 μM SB222200 for both radioligands. The radioactivity on the filter was counted (5 min) on a Packard Top-count microplate scintillation counter with quenching correction after addition of 45 μl of microscint 40 (Can berra Packard S. A., Zürich, Switzerland) and shaking for 1 h. Inhibition curves were fitted according to the Hill equation: y=100/(1+(x/IC50)^nH), where nH=slope factor using Excel-fit 4 software (Microsoft). IC50 values were derived from the inhibition curve and the affinity constant (Ki) values were calculated using the Cheng-Prussoff equation Ki=IC50/(1+[L]/KD) where [L] is the concentration of radioligand and KD is its dissociation constant at the receptor, derived from the saturation isotherm. All experiments were performed in duplicate and the mean±standard error (SEM) of the individual Ki values was calculated.

| SMILES | Ki [nM] |
| --- | --- |
| C[C@H](Oc1ccc(Cl)cn1)[C@H]1CCN(C(=O)N2CCN(S(C)(=O)=O)CC2)C[C@@H]1c1ccc(Cl)cc1 [Example 14, {(3S,4S)-3-(4-Chloro-phenyl)-4-[(S)-1-(5-chloro-pyridin-2-yloxy)-ethyl]-piperidin-1-yl}-(4-methanesulfonyl-piperazin-1-yl)-methanone] | 2.6 |
| Cc1nc(-c2ccc(C(=O)N3CC[C@H]([C@H](C)Oc4ccc(Cl)cn4)[C@@H](c4ccc(Cl)cc4)C3)cc2)no1 [Example 12, {(3S,4S)-3-(4-Chloro-phenyl)-4-[(S)-1-(5-chloro-pyridin-2-yloxy)-ethyl]-piperidin-1-yl}-[4-(5-methyl-[1,2,4]oxadiazol-3-yl)-phenyl]-methanone] | 2.3 |
| C[C@H](Oc1ccc(Cl)cn1)[C@H]1CCN(C(=O)C2CCN(C(=O)C3(C)CC3)CC2)C[C@@H]1c1ccc(Cl)cc1 (stereo in doubt) [Example 7, (4-{(3S,4S)-3-(4-Chloro-phenyl)-4-[(S)-1-(5-chloro-pyridin-2-yloxy)-ethyl]-piperidine-1-carbonyl}-piperidin-1-yl)-(1-methyl-cyclopropyl)-methanone] | 2.6 |
| C[C@H](Oc1ccc(Cl)c(Cl)c1)[C@H]1CCN(C(=O)C2CCN(c3ccc(C#N)cn3)CC2)C[C@@H]1c1ccc(Cl)cc1 [Example 49, 4-{(3S,4S)-3-(4-Chloro-phenyl)-4-[(S)-1-(3,4-dichloro-phenoxy)-ethyl]-piperidine-1-carbonyl}-3,4,5,6-tetrahydro-2H-[1,2′]bipyridinyl-5′-carbonitrile] | 5.5 |
| C[C@H](Oc1ccc(C(F)(F)F)cn1)[C@H]1CCN(C(=O)C2CCN(C(=O)C3(C)CC3)CC2)C[C@@H]1c1ccc(Cl)cc1 [Example 16, (4-{(3S,4S)-3-(4-Chloro-phenyl)-4-[(S)-1-(5-trifluoromethyl-pyridin-2-yloxy)-ethyl]-piperidine-1-carbonyl}-piperidin-1-yl)-(1-methyl-cyclopropyl)-methanone] | 1.6 |
| C[C@H](Oc1ccc(Cl)cn1)[C@H]1CCN(C(=O)C2CCN(c3ccc(C#N)cn3)CC2)C[C@@H]1c1ccc(F)c(F)c1 [Example 62, 4-[(3S,4S)-4-[(S)-1-(5-Chloro-pyridin-2-yloxy)-ethyl]-3-(3,4-difluoro-phenyl)-piperidine-1-carbonyl]-3,4,5,6-tetrahydro-2H-[1,2′]bipyridinyl-5′-carbonitrile] | 0.2 |
| N#Cc1ccc(N2CCC(C(=O)N3CC[C@H](COc4ccc(Cl)cn4)[C@@H](c4ccc(F)c(F)c4)C3)CC2)nc1 (relative stereo) [Example 33] | 1.3 |
| C[C@H](Oc1ccc(C#N)cn1)[C@H]1CCN(C(=O)C2CCN(C(=O)C3(C)CC3)CC2)C[C@@H]1c1ccc(F)c(F)c1 [Example 66, 6-((S)-1-{(3S,4S)-3-(3,4-Difluoro-phenyl)-1-[1-(1-methyl-cyclopropanecarbonyl)-piperidine-4-carbonyl]-piperidin-4-yl}-ethoxy)-nicotinonitrile] | 4.6 |
| Cc1cc(C(=O)N2CC[C@H]([C@H](C)Oc3ccc(C#N)cn3)[C@@H](c3ccc(Cl)cc3)C2)cnn1 [Example 24, 6-{(S)-1-[(3S,4S)-3-(4-Chloro-phenyl)-1-(6-methyl-pyridazine-4-carbonyl)-piperidin-4-yl]-ethoxy}-nicotinonitrile] | 8.7 |
| C[C@H](Oc1ccc(C(F)(F)F)cn1)[C@H]1CCN(C(=O)N2CCN(S(C)(=O)=O)CC2)C[C@@H]1c1ccc(Cl)cc1 [Example 21, {(3S,4S)-3-(4-Chloro-phenyl)-4-[(S)-1-(5-trifluoromethyl-pyridin-2-yloxy)-ethyl]-piperidin-1-yl}-(4-methanesulfonyl-piperazin-1-yl)-methanone] | 4.7 |
| C[C@H](Oc1ccc(C#N)cc1)[C@H]1CCN(C(=O)C2CCN(c3ccc(C#N)cn3)CC2)C[C@@H]1c1ccc(Cl)cc1 [Example 51, 4-{(3S,4S)-3-(4-Chloro-phenyl)-4-[(S)-1-(4-cyano-phenoxy)-ethyl]-piperidine-1-carbonyl}-3,4,5,6-tetrahydro-2H-[1,2′]bipyridinyl-5′-carbonitrile] | 1.9 |
| C[C@H](Oc1ccc(C#N)cn1)[C@H]1CCN(C(=O)C2CCN(c3ccc(C#N)cn3)CC2)C[C@@H]1c1ccc(F)c(F)c1 [Example 65, 4-[(3S,4S)-4-[(S)-1-(5-Cyano-pyridin-2-yloxy)-ethyl]-3-(3,4-difluoro-phenyl)-piperidine-1-carbonyl]-3,4,5,6-tetrahydro-2H-[1,2′]bipyridinyl-5′-carbonitrile] | 0.4 |
| C[C@H](Oc1ccc(Cl)cn1)[C@H]1CCN(C(=O)C2CCN(C(=O)C3(C)CC3)CC2)C[C@@H]1c1ccc(Cl)cc1 (racemic) [Example 5, (4-{(3SR, 4SR)-3-(4-Chloro-phenyl)-4-[(SR)-1-(5-chloro-pyridin-2-yloxy)-ethyl]-piperidine-1-carbonyl}-piperidin-1-yl)-(1-methyl-cyclopropyl)-methanone] | 4.1 |
| Cc1nc(-c2ccc(C(=O)N3CC[C@H]([C@H](C)Oc4ccc(C(F)(F)F)cn4)[C@@H](c4ccc(Cl)cc4)C3)cc2)no1 [Example 19, {(3S,4S)-3-(4-Chloro-phenyl)-4-[(S)-1-(5-trifluoromethyl-pyridin-2-yloxy)-ethyl]-piperidin-1-yl}-[4-(5-methyl-[1,2,4]oxadiazol-3-yl)-phenyl]-methanone] | 1.4 |
| C[C@H](Oc1ccc(C#N)cn1)[C@H]1CCN(C(=O)C2CCN(C(=O)C3(C)CC3)CC2)C[C@@H]1c1ccc(Cl)cc1 [Example 23, 6-((S)-1-{(3S,4S)-3-(4-Chloro-phenyl)-1-[1-(1-methyl-cyclopropanecarbonyl)-piperidine-4-carbonyl]-piperidin-4-yl}-ethoxy)-nicotinonitrile] | 1.1 |
| C[C@H](Oc1ccc(F)cn1)[C@H]1CCN(C(=O)C2CCN(c3ccc(C#N)cn3)CC2)C[C@@H]1c1ccc(Cl)cc1 [Example 52, 4-{(3S,4S)-3-(4-Chloro-phenyl)-4-[(S)-1-(5-fluoro-pyridin-2-yloxy)-ethyl]-piperidine-1-carbonyl}-3,4,5,6-tetrahydro-2H-[1,2′]bipyridinyl-5′-carbonitrile] | 0.6 |
| C[C@H](Oc1cccc(F)c1)[C@H]1CCN(C(=O)C2CCN(c3ccc(C#N)cn3)CC2)C[C@@H]1c1ccc(Cl)cc1 [Example 56, 4-{(3S,4S)-3-(4-Chloro-phenyl)-4-[(S)-1-(3-fluoro-phenoxy)-ethyl]-piperidine-1-carbonyl}-3,4,5,6-tetrahydro-2H-[1,2′]bipyridinyl-5′-carbonitrile] | 3.8 |
| Cc1nc(-c2ccc(C(=O)N3CC[C@H]([C@H](C)Oc4ccc(C#N)cn4)[C@@H](c4ccc(Cl)cc4)C3)cc2)no1 [Example 26, 6-((S)-1-{(3S,4S)-3-(4-Chloro-phenyl)-1-[4-(5-methyl-[1,2,4]oxadiazol-3-yl)-benzoyl]-piperidin-4-yl}-ethoxy)-nicotinonitrile] | 5.1 |
| C[C@H](Oc1ccc(Cl)cc1)[C@H]1CCN(C(=O)C2CCN(c3ccc(C#N)cn3)CC2)C[C@@H]1c1ccc(Cl)cc1 [Example 55, 4-[(3S,4S)-4-[(S)-1-(4-Chloro-phenoxy)-ethyl]-3-(4-chloro-phenyl)-piperidine-1-carbonyl]-3,4,5,6-tetrahydro-2H-[1,2′]bipyridinyl-5′-carbonitrile] | 0.9 |
| C[C@H](Oc1ccc(F)cc1)[C@H]1CCN(C(=O)C2CCN(c3ccc(C#N)cn3)CC2)C[C@@H]1c1ccc(Cl)cc1 [Example 53, 4-{(3S,4S)-3-(4-Chloro-phenyl)-4-[(S)-1-(4-fluoro-phenoxy)-ethyl]-piperidine-1-carbonyl}-3,4,5,6-tetrahydro-2H-[1,2′]bipyridinyl-5′-carbonitrile] | 0.6 |
| C[C@H](Oc1ccc(Cl)cn1)[C@H]1CCN(C(=O)C2CCN(c3ccc(C#N)cn3)CC2)C[C@@H]1c1ccc(Cl)cc1 [Example 13, 4-{(3S,4S)-3-(4-Chloro-phenyl)-4-[(S)-1-(5-chloro-pyridin-2-yloxy)-ethyl]-piperidine-1-carbonyl}-3,4,5,6-tetrahydro-2H-[1,2′]bipyridinyl-5′-carbonitrile] | 0.3 |
